Experiments:
[1] = test system: OSCSCs; assay: Cell death assay (PI staining, flow cytometry); format: cell-based, human
Experimental: (§1) No differences between untreated tumor cells and those treated with the DMSO vehicle alone in cell count or the amount of cell death in OSCCs and OSCSCs. […] Proportion of the live cells that had lost forward and side scatter were determined indicating decreased viability of the cells. In addition, the numbers of viable cells were determined after PI staining followed by flow cytometric analysis (FIG. 2A). OSCC tumor cells were treated as in FIG. 2A and the cells were analyzed by flow cytometry to determine the proportion of the live cells that had lost forward and side scatter indicating decreased viability of the cells (FIG. 2B) and the numbers of viable OSCC tumor cells were determined after PI staining followed by flow cytometric analysis (FIG. 2C). […] PI staining was used to determine the cell death by flow cytometry. One of four representative experiment is shown in (FIG. 2D). The compiled data of paired OSCCs and OSCSCs at the same concentration of WIN 55,212-2 treatment from four experiments is shown in (FIG. 2E). Four experiments were compiled and the % cell death of tumor cells by various WIN 55-212,2 concentrations (10, 25, 50 and 100 μM) were compared to the untreated control for both OSCC (FIG. 2F) and OSCSC (FIG. 2G). […] Non-linear regression was used to fit the curve of the % cell death induced by WIN 55-212,2 in various concentrations (10, 25, 50 and 100 μM) for both OSCC and OSCSC. […] The differences were clear within each independent experiment.
(§2) PI staining was used to determine the cell death by flow cytometry. Compiled data from four independent experiments performed is shown.

[2] = test system: OSCCs; assay: Cell death assay (PI staining, flow cytometry); format: cell-based, human; settings: 24 hours
Experimental: as §1, §2

[3] = test system: OSCCs
[4] = test system: NK cells; assay: NK cell cytotoxicity in humanized BLT mice (4-hr Chromium release assay); format: in vivo; settings: hu-BLT mice, every 2 days for 3 weeks; WIN 55,212-2 2 mg/kg IP; IL-15 5 μg/mice IP; preliminary experiments
Experimental: Humanized BLT mice (hu-BLT; human-bone marrow/liver/thymus) were fed with, AJ2 (5×10^9 CFU/mice, every 2 days, Oral administration), WIN 55,212-2 (2 mg/kg, every 2 days, IP) and/or IL-15 (5 μg/mice, every 2 days, IP). After 3 weeks of treatment, immune cells were collected from peripheral blood, bone marrow and spleen, and CD3+ T cells were isolated from splenocytes with EasySep™ Human CD3 positive selection kit II (StemCell Tech.). PBMCs (0.5×10^6 cells) obtained from the peripheral blood were treated with IL-2 (1000 U/ml) and/or anti-CD16 antibody (BioLegend) (3 μg/ml) for 3 days, after which the cells were counted and different numbers of E:T ratios were used for the assessment of cytotoxicity using 4-hr Chromium release assay (FIG. 1A and FIG. 1B). The percentage specific cytotoxicity was calculated using the following formula (% cytotoxicity=(Experimental cpm/spontaneous cpm)/(total cpm−spontaneous cpm)) and the lytic unit 30 (Lu30/10^6) was calculated by using the inverse of the number of effector cells needed to lyse 30% of tumor target cells×100. Killing per % NK cells was determined by dividing the total Lytic unit 30 by the percentage of NK cells in each sample (FIG. 1A and FIG. 1B). […]

[5] = test system: tumors; settings: cited from earlier work
[6] = test system: PL-12 tumor cells; assay: Cell death assay (PI staining, flow cytometry); format: cell-based, human; settings: 25-100 μM, 24-48 hours
[7] = test system: OSCSCs; settings: 24 hours, up to 50 μM
[8] = vs untreated controls, 24 hours, up to 50 μM

SMILES: CS(=O)(=O)O.Cc1c(C(=O)c2cccc3ccccc23)c2cccc3c2n1[C@H](CN1CCOCC1)CO3 [WIN 55,212-2, (R)-(+)-[2,3-Dihydro-5-methyl-3-(4-morpholinylmethyl)pyrrolo[1,2,3-de]-1,4-benzoxazin-6-yl]-1-naphthalenylmethanone mesylate]
- amounts of cell death in OSCSCs compared with those induced by CDDP ([1]; 25-100 μM): either similar or higher
- cell death (PI staining) compared with OSCCs ([1]; all concentrations tested, 24 hours): higher cell death
- cell death (PI staining) ([2]; 75 and 100 μM): up to 10%
- forward scatter/side scatter (size of cells, early apoptosis) ([2]; different concentrations): significant dose dependent decrease
- decrease in cell surface MHC class I expression, OSCCs compared with OSCSCs ([3]; after WIN 55,212-2 treatment): Significantly greater decrease
- cell surface expression of CD44 [3, 8]: Decreased expression
- cell surface expression of CD54 [3, 8]: Decreased expression
- cell surface expression of MHC class I [3, 8]: Decreased expression
- cell surface expression of PD-L1 [3, 8]: Decreased expression
- cytotoxic function of NK cells in PBMC [4]: increased the cytotoxic function of NK cells
- migration and invasion of tumors ([5]; previously reported in several studies): inhibiting
- anti-tumor effect, mechanism ([5]; previously reported): inducing caspase-independent apoptosis
- percentages of dead cells (PI staining) [6]: up to 20%
- cell surface expression of CD44 [7]: decreased
- cell surface expression of CD54 [7]: decreased
- cell surface expression of MHC class I [7]: remained unchanged
- cell surface expression of PD-L1 [7]: decreased

From patent US20250332180A1, “CANNABINOIDS AND IL-15 ACTIVATE NK CELLS” (The Regents of the University of California, priority 2022, published 2025)
